In PubChem BioAssay AID1963871 (Molecular Pharmacology Branch, DTP, NCI, 2024):
“And” between values parts separate entries of the source, which are not always exact repeats. Equal entries are not always repeated.

System: KRAS-mutant PDC multicell tumor spheroid viability
Assay: Anticancer human tumor 521955-158-R2-J5-PDC patient-derived pancreatic carcinoma cell line growth inhibition [KRAS2]
Conditions: for viability, T/C: stronger effect = lower value; active = viability on the fitted dose curve at most 10% of control; inactive = the rest
In short: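 Combination screen of spheroid viability in tumor-cell co-cultures with endothelial (HUVEC) and mesenchymal stem cell stroma. Each agent was tested in half-log dilutions, topping at clinical Cmax or at 10 microM without a known Cmax.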

[1] = curve of first compound, second compound 0.1 µM
[2] = curve of first compound, second compound 0.316 µM
[3] = curve of first compound, second compound 1 µM
[4] = curve of first compound, second compound 3.16 µM
[5] = second compound 0.1 µM, first compound 0.01 µM
[6] = second compound 0.1 µM, first compound 0.0316 µM
[7] = second compound 0.1 µM, first compound 0.1 µM
[8] = second compound 0.316 µM, first compound 0.01 µM
[9] = second compound 0.316 µM, first compound 0.0316 µM
[10] = second compound 0.316 µM, first compound 0.1 µM
[11] = second compound 1 µM, first compound 0.01 µM
[12] = second compound 1 µM, first compound 0.0316 µM
[13] = second compound 1 µM, first compound 0.1 µM
[14] = second compound 3.16 µM, first compound 0.01 µM
[15] = second compound 3.16 µM, first compound 0.0316 µM
[16] = second compound 3.16 µM, first compound 0.1 µM
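Note: viability read after seven days of drug exposure.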

CN(C)C/C=C/C(=O)Nc1cc2c(Nc3ccc(F)c(Cl)c3)ncnc2cc1O[C@H]1CCOC1 + C=CC(=O)N1CCN(c2nc(=O)n(-c3c(C)ccnc3C(C)C)c3nc(-c4c(O)cccc4F)c(F)cc23)C(C)C1
> 0.1 µM: IC50 [1] | IC50 [2] | IC50 [3] | IC50 [4]
0.0758 µM: IC50 (curve of first compound, second compound 10 µM)
inactive: viability, T/C (second compound 0.1 µM, first compound 0.000316 µM) 124% | viability, T/C (second compound 0.1 µM, first compound 0.001 µM) 118% | viability, T/C (second compound 0.1 µM, first compound 0.00316 µM) 93.8% | viability, T/C [5] 97.2% | viability, T/C [6] 98.6% | viability, T/C [7] 80.5% | viability, T/C (second compound 0.316 µM, first compound 0.000316 µM) 133% | viability, T/C (second compound 0.316 µM, first compound 0.001 µM) 134% | viability, T/C (second compound 0.316 µM, first compound 0.00316 µM) 103% | viability, T/C [8] 88.5% | viability, T/C [9] 90.6% | viability, T/C [10] 76.7% | viability, T/C (second compound 1 µM, first compound 0.000316 µM) 120% | viability, T/C (second compound 1 µM, first compound 0.001 µM) 120% | viability, T/C (second compound 1 µM, first compound 0.00316 µM) 99.8% | viability, T/C [11] 84.9% | viability, T/C [12] 85.2% | viability, T/C [13] 71% | viability, T/C (second compound 3.16 µM, first compound 0.000316 µM) 99.4% | viability, T/C (second compound 3.16 µM, first compound 0.001 µM) 104% | viability, T/C (second compound 3.16 µM, first compound 0.00316 µM) 89.5% | viability, T/C [14] 77% | viability, T/C [15] 59.4% | viability, T/C [16] 69.2% | viability, T/C (second compound 10 µM, first compound 0.000316 µM) 67.4% | viability, T/C (second compound 10 µM, first compound 0.001 µM) 72.4% | viability, T/C (second compound 10 µM, first compound 0.00316 µM) 55.7% | viability, T/C (second compound 10 µM, first compound 0.01 µM) 57.5% | viability, T/C (second compound 10 µM, first compound 0.0316 µM) 51.9% | viability, T/C (second compound 10 µM, first compound 0.1 µM) 49.7%

CC(=O)OC12COC1CC(O)C1(C)C(=O)C(O)C3=C(C)C(OC(=O)C(O)C(NC(=O)OC(C)(C)C)c4ccccc4)CC(O)(C(OC(=O)c4ccccc4)C21)C3(C)C (stereo not given) + C=CC(=O)N1CCN(c2nc(OCC3CCCN3C)nc3c2CCN(c2cccc4cccc(C)c24)C3)CC1CC#N
< 0.01 µM: IC50 (curve of first compound, second compound 0.0316 µM) | IC50 [1] | IC50 [2] | IC50 [3] | IC50 [4]
inactive: viability, T/C (second compound 0.0316 µM, first compound 0.01 µM) 21.3% | viability, T/C (second compound 0.0316 µM, first compound 0.0316 µM) 15.8% | viability, T/C (second compound 0.0316 µM, first compound 0.1 µM) 12.7% | viability, T/C (second compound 0.0316 µM, first compound 0.316 µM) 15.2% | viability, T/C (second compound 0.0316 µM, first compound 1 µM) 15.4% | viability, T/C (second compound 0.0316 µM, first compound 3.16 µM) 20.6% | viability, T/C [5] 19.4% | viability, T/C [6] 16.3% | viability, T/C [7] 12.6% | viability, T/C (second compound 0.1 µM, first compound 0.316 µM) 12.7% | viability, T/C (second compound 0.1 µM, first compound 1 µM) 15.1% | viability, T/C (second compound 0.1 µM, first compound 3.16 µM) 18.3% | viability, T/C [8] 19.3% | viability, T/C [9] 10% | viability, T/C [10] 9.97% | viability, T/C (second compound 0.316 µM, first compound 0.316 µM) 11.8% | viability, T/C (second compound 0.316 µM, first compound 1 µM) 17.3% | viability, T/C (second compound 0.316 µM, first compound 3.16 µM) 19.8% | viability, T/C [11] 18.9% | viability, T/C [12] 13.2% | viability, T/C [13] 10% | viability, T/C (second compound 1 µM, first compound 0.316 µM) 9.11% | viability, T/C (second compound 1 µM, first compound 1 µM) 11.5% | viability, T/C (second compound 1 µM, first compound 3.16 µM) 14.3% | viability, T/C [14] 22.1% | viability, T/C [15] 15.5% | viability, T/C [16] 15.3% | viability, T/C (second compound 3.16 µM, first compound 0.316 µM) 15.8% | viability, T/C (second compound 3.16 µM, first compound 1 µM) 16.9% | viability, T/C (second compound 3.16 µM, first compound 3.16 µM) 21.8%

CC(C)NCC(C(=O)N1CCN(c2ncnc3c2C(C)CC3O)CC1)c1ccc(Cl)cc1 (stereo not given)
> 10 µM: IC50 (curve of compound)
inactive: viability, T/C (compound 0.0316 µM) 100% [middle of 5 runs] | viability, T/C (compound 0.1 µM) 102% [middle of 5 runs] | viability, T/C (compound 0.316 µM) 83.8% [middle of 5 runs] | viability, T/C (compound 1 µM) 80.8% [middle of 5 runs] | viability, T/C (compound 3.16 µM) 84.4% [middle of 5 runs] | viability, T/C (compound 10 µM) 66.7% [middle of 5 runs]

CC1OCC2(CCN(c3cnc(Sc4ccnc(N)c4Cl)c(N)n3)CC2)C1N (stereo not given)
> 10 µM: IC50 (curve of compound)
> 10 µM and 4.03 µM: IC50 (compound alone, run of 09/02/2021)
inactive: viability, T/C (compound 0.0316 µM) 84.3% and 94% and 83.1%
